Key:
Liver microsome [1] = assay: Drug metabolism in Sprague-Dawley rat liver microsomes assessed as (6R)-6-((5R,7S,10S,13R,14R,17R)-2,7-dihydroxy-4,4,10,13,14-pentamethyl-3,11,15-trioxo-2,3,4,5,6,7,10,11,12,13,14,15,16,17-tetradecahydro-1H-cyclopenta[a]phenanthren-17-yl)-2-methyl-4-oxoheptanoic acid formation at 100 uM after 1 hr by UPLC/Q-TOF analysis; assay type: ADME
[2] = Drug excretion in Sprague-Dawley rat bile assessed as (6R)-6-((5R,7S,10S,13R,14R)-7-hydroxy-4-(hydroxymethyl)-4,10,13,14-tetramethyl-3,11,15-trioxo-2,3,4,5,6,7,10,11,12,13,14,15-dodecahydro-1H-cyclopenta[a]phenanthren-17-yl)-2-methyl-4-oxoheptanoic acid level at 10 mg/kg, po after 12 hrs by UPLC/Q-TOF analysis; assay type: ADME, organism-based; parameters: dose 10 mg/kg, route oral; settings: in vivo
[3] = Drug excretion in Sprague-Dawley rat bile assessed as (6R)-6-((5R,7S,10S,13R,14R,17R)-2,7-dihydroxy-4,4,10,13,14-pentamethyl-3,11,15-trioxo-2,3,4,5,6,7,10,11,12,13,14,15,16,17-tetradecahydro-1H-cyclopenta[a]phenanthren-17-yl)-2-methyl-4-oxoheptanoic acid level at 10 mg/kg, po after 12 hrs by UPLC/Q-TOF analysis; assay type: ADME, organism-based; parameters: dose 10 mg/kg, route oral; settings: in vivo
[4] = Drug excretion in Sprague-Dawley rat urine assessed as parent compound at 10 mg/kg, po by UPLC/Q-TOF analysis; assay type: ADME, organism-based; parameters: dose 10 mg/kg, route oral; settings: in vivo
[5] = Drug excretion in Sprague-Dawley rat bile assessed as (6R)-6-((5R,7S,10S,13R,14R,17R)-2,7-dihydroxy-4,4,10,13,14-pentamethyl-3,11,15-trioxo-2,3,4,5,6,7,10,11,12,13,14,15,16,17-tetradecahydro-1H-cyclopenta[a]phenanthren-17-yl)-2-hydroxy-2-methyl-4-oxoheptanoic acid level at 10 mg/kg, po after 12 hrs by UPLC/Q-TOF analysis; assay type: ADME, organism-based; parameters: dose 10 mg/kg, route oral; settings: in vivo
Rattus norvegicus = assay: Drug metabolism in Sprague-Dawley rat plasma assessed as 3,7(S)-dihydroxy-11,15,23-trioxolanost-8-en-26-oic acid level at 10 mg/kg, po by UPLC/Q-TOF analysis; assay type: ADME, organism-based; parameters: dose 10 mg/kg, route oral; settings: in vivo
[6] = Drug excretion in Sprague-Dawley rat bile assessed as 3,7,11,15,23-pentaoxolanost-8-en-26-oic acid level at 10 mg/kg, po after 12 hrs by UPLC/Q-TOF analysis; assay type: ADME, organism-based; parameters: dose 10 mg/kg, route oral; settings: in vivo
Liver microsome [7] = assay: Drug metabolism in Sprague-Dawley rat liver microsomes assessed as 3,7(S)-dihydroxy-11,15,23-trioxolanost-8-en-26-oic acid formation at 100 uM after 1 hr by UPLC/Q-TOF analysis; assay type: ADME
[8] = Drug excretion in Sprague-Dawley rat bile assessed as (6R)-6-((5R,7S,10S,13R,14R,17R)-2,7-dihydroxy-4-(hydroxymethyl)-4,10,13,14-tetramethyl-3,11,15-trioxo-2,3,4,5,6,7,10,11,12,13,14,15,16,17-tetradecahydro-1H-cyclopenta[a]phenanthren-17-yl)-2-hydroxy-2-methyl-4-oxoheptanoic acid level at 10 mg/kg, po after 12 hrs by UPLC/Q-TOF analysis; assay type: ADME, organism-based; parameters: dose 10 mg/kg, route oral; settings: in vivo
HeLa = assay: Antiproliferative activity against human HeLa cells assessed as inhibition of cell proliferation after 48 hrs; assay type: functional, cell-based
[9] = Drug excretion in Sprague-Dawley rat bile assessed as 7(S) -hydroxy-11,15,23-trioxo-3-sulfooxylanost-8-en-26-oic acid level at 10 mg/kg, po after 12 hrs by UPLC/Q-TOF analysis; assay type: ADME, organism-based; parameters: dose 10 mg/kg, route oral; settings: in vivo
Plasma [10] = assay: Drug level in Sprague-Dawley rat plasma treated with ganoderic acid D at 10 mg/kg, po by UPLC/Q-TOF analysis; assay type: ADME, organism-based; parameters: dose 10 mg/kg, route oral; settings: in vivo
Liver microsome [11] = assay: Drug metabolism in Sprague-Dawley rat liver microsomes assessed as (6R)-6-((5R,7S,10S,13R,14R,17R)-2,7-dihydroxy-4-(hydroxymethyl)-4,10,13,14-tetramethyl-3,11,15-trioxo-2,3,4,5,6,7,10,11,12,13,14,15,16,17-tetradecahydro-1H-cyclopenta[a]phenanthren-17-yl)-2-methyl-4-oxoheptanoic acid formation at 100 uM after 1 hr by UPLC/Q-TOF analysis; assay type: ADME
[12] = Drug excretion in Sprague-Dawley rat bile assessed as (6R)-2-hydroxy-6-((5R,7S,10S,13R,14R,17R)-7-hydroxy-4-(hydroxymethyl)-4,10,13,14-tetramethyl-3,11,15-trioxo-2,3,4,5,6,7,10,11,12,13,14,15,16,17-tetradecahydro-1H-cyclopenta[a]phenanthren-17-yl)-2-methyl-4-oxoheptanoic acid level at 10 mg/kg, po after 12 hrs by UPLC/Q-TOF analysis; assay type: ADME, organism-based; parameters: dose 10 mg/kg, route oral; settings: in vivo
[13] = Drug excretion in Sprague-Dawley rat bile assessed as (6R)-6-((5R,7S,10S,13R,14R,17R)-2,7-dihydroxy-4-(hydroxymethyl)-4,10,13,14-tetramethyl-3,11,15-trioxo-2,3,4,5,6,7,10,11,12,13,14,15,16,17-tetradecahydro-1H-cyclopenta[a]phenanthren-17-yl)-2-methyl-4-oxoheptanoic acid level at 10 mg/kg, po after 12 hrs by UPLC/Q-TOF analysis; assay type: ADME, organism-based; parameters: dose 10 mg/kg, route oral; settings: in vivo
Plasma [14] = assay: Drug level in Sprague-Dawley rat plasma at 10 mg/kg, po by UPLC/Q-TOF analysis; assay type: ADME, organism-based; parameters: dose 10 mg/kg, route oral; settings: in vivo
[15] = Drug excretion in Sprague-Dawley rat bile assessed as (6R)-6-((5R,7S,10S,13R,14R,17R)-2,7-dihydroxy-4,4,10,13,14-pentamethyl-3,11,15-trioxo-2,3,4,5,6,7,10,11,12,13,14,15,16,17-tetradecahydro-1H-cyclopenta[a]phenanthren-17-yl)-2-(hydroxymethyl)-4-oxoheptanoic acid level at 10 mg/kg, po after 12 hrs by UPLC/Q-TOF analysis; assay type: ADME, organism-based; parameters: dose 10 mg/kg, route oral; settings: in vivo
[16] = Drug excretion in Sprague-Dawley rat bile assessed as (6R)-6-((5R,7S,10S,13R,14R)-3,7-dihydroxy-4,4,10,13,14-pentamethyl-11,15-dioxo-2,3,4,5,6,7,10,11,12,13,14,15-dodecahydro-1H-cyclopenta[a]phenanthren-17-yl)-2-methyl-4-oxoheptanoic acid level at 10 mg/kg, po after 12 hrs by UPLC/Q-TOF analysis; assay type: ADME, organism-based; parameters: dose 10 mg/kg, route oral; settings: in vivo
[17] = Drug excretion in Sprague-Dawley rat urine assessed as metabolite level at 10 mg/kg, po by UPLC/Q-TOF analysis; assay type: ADME, organism-based; parameters: dose 10 mg/kg, route oral; settings: in vivo
[18] = Retention time of the compound in Sprague-Dawley rat bile by UPLC/Q-TOF analysis; assay type: ADME
[19] = Drug excretion in Sprague-Dawley rat bile assessed as (6R)-6-((5R,7S,10S,13R,14R,17R)-7-hydroxy-4,4,10,13,14-pentamethyl-3,11,15-trioxo-2,3,4,5,6,7,10,11,12,13,14,15,16,17-tetradecahydro-1H-cyclopenta[a]phenanthren-17-yl)-2-(hydroxymethyl)-4-oxoheptanoic acid level at 10 mg/kg, po after 12 hrs by UPLC/Q-TOF analysis; assay type: ADME, organism-based; parameters: dose 10 mg/kg, route oral; settings: in vivo
[20] = Drug excretion in Sprague-Dawley rat bile assessed as (6R)-2-hydroxy-6-((5R,7S,10S,13R,14R,17R)-7-hydroxy-4,4,10,13,14-pentamethyl-3,11,15-trioxo-2,3,4,5,6,7,10,11,12,13,14,15,16,17-tetradecahydro-1H-cyclopenta[a]phenanthren-17-yl)-2-methyl-4-oxoheptanoic acid level at 10 mg/kg, po after 12 hrs by UPLC/Q-TOF analysis; assay type: ADME, organism-based; parameters: dose 10 mg/kg, route oral; settings: in vivo
[21] = Drug excretion in Sprague-Dawley rat bile assessed as 3,7(S)-dihydroxy-11,15,23-trioxolanost-8-en-26-oic acid level at 10 mg/kg, po after 12 hrs by UPLC/Q-TOF analysis; assay type: ADME, organism-based; parameters: dose 10 mg/kg, route oral; settings: in vivo
Liver microsome [22] = assay: Drug level in Sprague-Dawley rat liver microsomes assessed as compound formation treated with ganoderic acid D at 100 uM after 1 hr by UPLC/Q-TOF analysis; assay type: ADME
[23] = Drug excretion in Sprague-Dawley rat bile treated with ganoderic acid D at 10 mg/kg, po after 12 hrs by UPLC/Q-TOF analysis; assay type: ADME, organism-based; parameters: dose 10 mg/kg, route oral; settings: in vivo

CC(CC(=O)CC(C)[C@H]1CC(=O)[C@@]2(C)C3=C(C(=O)C[C@]12C)[C@@]1(C)CCC(=O)C(C)(C)[C@@H]1C[C@@H]3O)C(=O)O (some centres not stated)
Drug metabolism (Liver microsome [1]): metabolite_detected | Drug excretion [2]: metabolite_detected | Drug excretion [3]: metabolite_detected | Drug excretion [4]: metabolite_not_detected | Drug excretion [5]: metabolite_detected | Drug metabolism (Rattus norvegicus): metabolite_detected | Drug excretion [6]: metabolite_detected | Drug metabolism (Liver microsome [7]): metabolite_detected | Drug excretion [8]: metabolite_detected | IC50 (HeLa): 17.3 µM | Drug excretion [9]: metabolite_detected | Drug metabolism (Plasma [10]): metabolite_detected | Drug metabolism (Liver microsome [11]): metabolite_detected | Drug excretion [12]: metabolite_detected | Drug excretion [13]: metabolite_detected | Drug uptake (Plasma [14]): Active | Drug excretion [15]: metabolite_detected | Drug excretion [16]: metabolite_detected | Drug excretion [17]: metabolite_not_detected | Retention_time [18]: 11.3 min | Drug excretion [19]: metabolite_detected | Drug excretion [20]: metabolite_detected | Drug excretion [21]: metabolite_detected

CC(CC(=O)CC(C)[C@H]1CC(=O)[C@@]2(C)C3=C(C(=O)C[C@]12C)[C@@]1(C)CCC(O)C(C)(C)[C@@H]1C[C@@H]3O)C(=O)O (some centres not stated)
Drug metabolism (Liver microsome [22]): metabolite_detected | Drug excretion [23]: metabolite_detected | Retention_time [18]: 9.9 min

CC(CC(=O)CC(C)[C@H]1CC(=O)[C@@]2(C)C3=C(C(=O)C[C@]12C)[C@@]1(C)CCC(=O)C(C)(C)[C@@H]1CC3=O)C(=O)O (some centres not stated)
Drug excretion [23]: metabolite_detected | Retention_time [18]: 11.5 min

CC(CC(=O)CC(C)C1=CC(=O)[C@@]2(C)C3=C(C(=O)C[C@]12C)[C@@]1(C)CCC(=O)C(C)(C)[C@@H]1C[C@@H]3O)C(=O)O (some centres not stated)
Drug excretion [23]: metabolite_detected | Retention_time [18]: 11.9 min

CC(CC(=O)CC(C)(O)C(=O)O)[C@H]1CC(=O)[C@@]2(C)C3=C(C(=O)C[C@]12C)[C@@]1(C)CCC(=O)C(C)(C)[C@@H]1C[C@@H]3O (some centres not stated)
Drug excretion [23]: metabolite_detected | Retention_time [18]: 10 min

CC(CC(=O)CC(CO)C(=O)O)[C@H]1CC(=O)[C@@]2(C)C3=C(C(=O)C[C@]12C)[C@@]1(C)CCC(=O)C(C)(C)[C@@H]1C[C@@H]3O (some centres not stated)
Drug excretion [23]: metabolite_detected | Retention_time [18]: 9.8 min

CC(CC(=O)CC(C)[C@H]1CC(=O)[C@@]2(C)C3=C(C(=O)C[C@]12C)[C@@]1(C)CC(O)C(=O)C(C)(C)[C@@H]1C[C@@H]3O)C(=O)O (some centres not stated)
Drug metabolism (Liver microsome [22]): metabolite_detected | Drug excretion [23]: metabolite_detected | Retention_time [18]: 9.5 min

CC(CC(=O)CC(C)[C@H]1CC(=O)[C@@]2(C)C3=C(C(=O)C[C@]12C)[C@@]1(C)CCC(=O)C(C)(CO)[C@@H]1C[C@@H]3O)C(=O)O (some centres not stated)
Drug excretion [23]: metabolite_detected | Retention_time [18]: 9.2 min

CC(CC(=O)CC(C)(O)C(=O)O)[C@H]1CC(=O)[C@@]2(C)C3=C(C(=O)C[C@]12C)[C@@]1(C)CC(O)C(=O)C(C)(C)[C@@H]1C[C@@H]3O (some centres not stated)
Drug excretion [23]: metabolite_detected | Retention_time [18]: 8.2 min

CC(CC(=O)CC(CO)C(=O)O)[C@H]1CC(=O)[C@@]2(C)C3=C(C(=O)C[C@]12C)[C@@]1(C)CC(O)C(=O)C(C)(C)[C@@H]1C[C@@H]3O (some centres not stated)
Drug excretion [23]: metabolite_detected | Retention_time [18]: 8 min

CC(CC(=O)CC(C)(O)C(=O)O)[C@H]1CC(=O)[C@@]2(C)C3=C(C(=O)C[C@]12C)[C@@]1(C)CCC(=O)C(C)(CO)[C@@H]1C[C@@H]3O (some centres not stated)
Drug excretion [23]: metabolite_detected | Retention_time [18]: 7.5 min

CC(CC(=O)CC(C)[C@H]1CC(=O)[C@@]2(C)C3=C(C(=O)C[C@]12C)[C@@]1(C)CC(O)C(=O)C(C)(CO)[C@@H]1C[C@@H]3O)C(=O)O (some centres not stated)
Drug metabolism (Liver microsome [22]): metabolite_detected | Drug excretion [23]: metabolite_detected | Retention_time [18]: 7.3 min

CC(CC(=O)CC(C)(O)C(=O)O)[C@H]1CC(=O)[C@@]2(C)C3=C(C(=O)C[C@]12C)[C@@]1(C)CC(O)C(=O)C(C)(CO)[C@@H]1C[C@@H]3O (some centres not stated)
Drug excretion [23]: metabolite_detected | Retention_time [18]: 5.9 min

CC(CC(=O)CC(C)[C@H]1CC(=O)[C@@]2(C)C3=C(C(=O)C[C@]12C)[C@@]1(C)CCC(OS(=O)(=O)O)C(C)(C)[C@@H]1C[C@@H]3O)C(=O)O (some centres not stated)
Drug excretion [23]: metabolite_detected | Retention_time [18]: 8.5 min

Source: ChEMBL document CHEMBL3526082, “Identification of metabolites of ganoderic acid D by ultra-performance liquid chromatography/quadrupole time-of-flight mass spectrometry” (Drug Metab Dispos, 2012)
